Experimental data taken from US20250019703A1, “PHARMACEUTICAL COMPOSITION FOR PREVENTION OR TREATMENT OF BLOOD CANCER COMPRISING SURF4 INHIBITOR” (PUSAN NATIONAL UNIVERSITY INDUSTRY-UNIVERSITY COOPERATION …, priority 2021, published 2025).

How the values were obtained:
[1] = system: STING in myeloid leukemia cells; test: Apoptosis and pTBK1 expression after cGAMP treatment; assay type: cell-based; conditions: cells treated with cGAMP; FIG. 15B
Method: Based on a report that STING, one of the endoplasmic reticulum membrane proteins, induces apoptosis and binds to SURF4 and STAT6, cells were treated with cGAMP, which induces STING. Specifically, cells were collected and lysed with a lysis buffer to extract proteins, which were then separated on a 10% SDS-PAGE gel and transferred to a membrane. pJNK, JNK, BAX, caspase 9, cleaved caspase 9, caspase 3, cleaved caspase 3, PARP, IRE1α, GRP78, PERK, pelF2α, elF2α, ATF4, CHOP, pSTAT6, STAT6, STING, pTBK1, and actin antibodies were each added, allowed to stand at 4° C. for 16 hours, and then a secondary antibody was added and allowed to stand at room temperature for one hour. Afterward, the resulting mixture was allowed to react with an ECL reagent, and the ECL was measured using a chemiluminescence image analyzer.

[2] = system: THP1, HL60, and K562 cells; test: Annexin V/7AAD apoptosis after paclitaxel treatment; assay type: cell-based, human; conditions: paclitaxel 0.5 μM alone, FIG. 5
Method: (§1) Apoptosis was measured after treating SURF4 shRNA-transfected THP1, HL60, and K562 cells with paclitaxel. The transfected SURF4 shRNA was the same as in Example 1-(1). Specifically, the concentration of paclitaxel treated in the THP1, HL60, and K562 cells was 0.5 μM, and after transfecting the cells with SURF4 shRNA, the cells were treated with paclitaxel 7 to 10 days later. Afterward, cells of each type were collected and suspended with an Annexin V binding buffer, and then Annexin V-FITC and 7AAD were added to perform measurement using a FACS flow cytometer.

[3] = system: THP1, HL60, and K562 cells; test: Annexin V/7AAD apoptosis after tunicamycin treatment; assay type: cell-based, human; conditions: tunicamycin 10 μM alone, FIG. 7
Method: as §1, with “tunicamycin.” for “paclitaxel.”, “tunicamycin” for “paclitaxel”, “10” for “0.5”

[4] = system: pSTAT6 in THP1 and HL60 cells; test: Western blot of pSTAT6 after IL4 treatment; assay type: cell-based, human; conditions: IL4 5 ng/ml for 60 minutes, FIG. 12
Method: Based on a report that apoptosis is induced by pSTAT6 through IL4 in leukemia cells, the expression of pSTAT6 was confirmed by treating a leukemia cell line with IL4, which induces STAT6. Specifically, THP1 and HL60 cells transfected with 6 μg of SURF4 shRNA were lysed by treating them with IL4 (5 ng/ml) for 60 minutes, and then Western blot was performed, and the SURF4 expression in the THP1 and HL60 cells transfected with SURF4 shRNA was measured by qRT-PCR. The cells were lysed with a lysis buffer to extract proteins, which were then separated on a 10% SDS-PAGE gel and transferred to a membrane. pJNK, JNK, BAX, caspase 9, cleaved caspase 9, caspase 3, cleaved caspase 3, PARP, IRE1α, GRP78, PERK, pelF2α, elF2α, ATF4, CHOP, pSTAT6, STAT6, STING, pTBK1, and actin antibodies were each added, allowed to stand at 4° C. for 16 hours, and then a secondary antibody was added and allowed to stand at room temperature for one hour. Afterward, the resulting mixture was allowed to react with an ECL reagent, and the ECL was measured using a chemiluminescence image analyzer. In addition, RNA was extracted from the cells using an RNA extraction kit, and cDNA was synthesized from the RNA using a cDNA synthesis kit. A qRT-PCR analysis was performed using the synthesized cDNA, SURF4 primers, and a SYBR green.

Nc1nc2c(ncn2[C@@H]2O[C@@H]3COP(=O)(O)O[C@H]4[C@@H](O)[C@H](n5cnc6c(N)ncnc65)O[C@@H]4COP(=O)(O)O[C@@H]2[C@@H]3O)c(=O)[nH]1 [cGAMP, cyclic guanosine monophosphate-adenosine monophosphate] was tested, and the pTBK1 expression [1] was “pTBK1 downstream of STING increased”.

For CC(=O)O[C@H]1C(=O)[C@@]2(C)[C@H]([C@H](OC(=O)c3ccccc3)[C@]3(O)C[C@H](OC(=O)[C@H](O)[C@@H](NC(=O)c4ccccc4)c4ccccc4)C(C)=C1C3(C)C)[C@]1(OC(C)=O)CO[C@@H]1C[C@@H]2O [paclitaxel], the apoptosis [2] was “induced apoptosis”.

In the case of tunicamycin, the apoptosis [3] is reported as “induced apoptosis”.

B1: IL4: interleukin-4, which induces STAT6 / the expression of pSTAT6 (protein, UniProt P05112 25-153, looked up)
Interleukin-4: HKCDITLQEIIKTLNSLTEQKTLCTELTVTDIFAASKNTTEKETFCRAATVLRQFYSHHEKDTRCLGATAQQFHRHKQLIRFLKRLDRNLWGLAGLNSCPVKEANQSTLENFLERLKTIMREKYSKCSS
In the case of B1, the “pSTAT6 expression (Western blot)” value [4] is reported as “pSTAT6 increased in both the control cells and the cells transfected with SURF4 shRNA”.
